From ChEMBL document CHEMBL6177988, “Design, synthesis, biophysical and biological evaluation of original condensed pyrrolopyrimidine and pyrrolopyridine ligands as anti-SARS-CoV-2 agents targeting G4” (Eur J Med Chem, 2025)

Assays:
Quadruplex DNA [1] = experiment: Thermal stabilization of human telomeric G-quadruplex F21T DNA (FAM-5'-GGGTTAGGGTTAGGGTTAGGG-3'-TAMRA) assessed as change in half-width of melting temperature at 2 uM by FRET-melting assay; format: nucleic-acid assay
[2] = system: Non-structural protein 3/TRF2 G-quadruplex ribonucleic acid; experiment: Inhibition of N-terminal His-tagged SARS-CoV-2 Nsp3 SUD-NM domain (413-676 residues)/SARS-CoV-2 TRF2 G-quadruplex RNA incubated for 2 hrs by HTRF assay; format: protein assay, Severe acute respiratory syndrome coronavirus 2
[3] = Cytotoxicity against human A549 cells harboring ACE2-CI33 assessed as cell viability by celltiter glo assay; format: toxicity, cell-based
Quadruplex DNA [4] = experiment: Thermal stabilization of human telomeric G-quadruplex F21T DNA (FAM-5'-GGGTTAGGGTTAGGGTTAGGG-3'-TAMRA) assessed as change in half-width of melting temperature at 1 uM by FRET-melting assay; format: nucleic-acid assay
[5] = Cytotoxicity against human Caco-2 cells harboring ACE2-CI33 assessed as cell viability by celltiter glo assay; format: toxicity, cell-based
Quadruplex DNA [6] = experiment: Thermal stabilization of human telomeric G-quadruplex F21T DNA (FAM-5'-GGGTTAGGGTTAGGGTTAGGG-3'-TAMRA) assessed as change in half-width of melting temperature at 0.5 uM by FRET-melting assay; format: nucleic-acid assay

Row | Structure (SMILES) | deltaTm1/2 (Quadruplex DNA [1]) | IC50 [2] | CC50 [3] | deltaTm1/2 (Quadruplex DNA [4]) | CC50 at 75 h [5] | deltaTm1/2 (Quadruplex DNA [6])
1 | CN(C)CCCNCc1ccc(-c2cn(-c3ccc(CNCCCN(C)C)cc3)c3ncnc(-c4ccc(CNCCCN(C)C)cc4)c23)cc1 | 20.3 °C | 46 nM | – | – | – | –
2 | CN(C)CCCCNCc1ccc(-c2cc(-c3ccc(CNCCCCN(C)C)cc3)c3ccn(-c4ccccc4)c3n2)cc1 | 26.3 °C | 223 nM | – | – | – | –
3 | CN1CCN(CCCCNCc2ccc(-c3ccc4ccc5ccc(-c6ccc(CNCCCCN7CCN(C)CC7)cc6)nc5c4n3)cc2)CC1 | 24.1 °C | 31.4 nM | > 10000 nM | – | – | –
4 | CN(C)CCCCCNCc1ccc(-c2cn(-c3ccccc3)c3ncnc(-c4ccc(CNCCCCCN(C)C)cc4)c23)cc1 | 14.8 °C | 140 nM | – | – | – | –
5 | O=C(O[C@@H]1Cc2c(O)cc(O)cc2O[C@@H]1c1cc(O)c(=O)c2c(O)c(O)cc([C@H]3Oc4cc(O)cc(O)c4C[C@H]3OC(=O)c3cc(O)c(O)c(O)c3)c2c1)c1cc(O)c(O)c(O)c1 | 0.9 °C | – | – | – | – | –
6 | CN(C)CCCCNCc1ccc(-c2nc(-c3ccc(CNCCCCN(C)C)cc3)c3ncn(-c4ccccc4)c3n2)cc1 | 31.7 °C | 79 nM | – | – | – | –
7 | CCN(CC)CCCCNCc1ccc(-c2cc3c(ccn3-c3ccccc3)c(-c3ccc(CNCCCCN(CC)CC)cc3)n2)cc1 | 28.7 °C | 446 nM | – | – | – | –
8 | CC(C)CCCCNCc1ccc(-c2cc(-c3ccc(CNCCCCC(C)C)cc3)c3ccn(-c4ccccc4)c3c2)cc1 | 4 °C | > 500 nM | – | – | – | –
9 | CN(C)CCCCNCc1ccc(-c2cn(-c3ccccc3)c3ncnc(-c4ccc(CNCCCCN(C)C)cc4)c23)cc1 | 13.1 °C | > 500 nM | – | – | – | –
10 | CN(C)CCCCNCc1ccc(-c2ccc3ccc4ccc(-c5ccc(CNCCCCN(C)C)cc5)nc4c3n2)cc1 | 18.5 °C | 31.2 nM | > 10000 nM | – | – | –
11 | CN(C)CCCCCNCc1ccc(-c2cc3c(ccn3-c3ccccc3)c(-c3ccc(CNCCCCCN(C)C)cc3)n2)cc1 | 22.6 °C | > 200 nM | – | – | – | –
12 | CN(C)CCCCNCc1ccc(-c2nc(-c3ccc(CNCCCCN(C)C)cc3)c3ccn(-c4ccc(CNCCCCN(C)C)cc4)c3n2)cc1 | > 36 °C | 48 nM | – | 23.8 °C | – | –
13 | CN(C)CCCCNCc1ccc(-c2cc(-c3ccc(CNCCCCN(C)C)cc3)c3ccn(-c4ccccc4)c3c2)cc1 | 23.7 °C | 75 nM | 2830 nM | – | 2140 nM | –
14 | CN(C)CCCCNCc1ccc(-c2nc(-c3ccc(CNCCCCN(C)C)cc3)c3c(ccn3-c3ccccc3)n2)cc1 | 18.6 °C | 90 nM | – | – | – | –
15 | C[n+]1cc(NC(=O)c2ccc3ccc4ccc(C(=O)Nc5cc6ccccc6[n+](C)c5)nc4c3n2)cc2ccccc21 | – | – | – | – | – | 21.2 °C
16 | CN1CCN(CCCCNCc2ccc(-c3nc(-c4ccc(CNCCCCN5CCN(C)CC5)cc4)c4ncn(-c5ccccc5)c4n3)cc2)CC1 | 30.2 °C | 115 nM | – | – | – | –
17 | CN(C)CCCNCc1ccc(-c2nc(-c3ccc(CNCCCN(C)C)cc3)c3ccn(-c4ccccc4)c3n2)cc1 | 25.9 °C | 137 nM | – | – | – | –
18 | CN(C)CCCCNCc1ccc(-c2nc(-c3ccccc3)c3ccn(-c4ccc(CNCCCCN(C)C)cc4)c3n2)cc1 | 26.4 °C | 97 nM | – | – | – | –
19 | O=c1c(O)cc([C@H]2Oc3cc(O)cc(O)c3C[C@H]2O)cc2c([C@H]3Oc4cc(O)cc(O)c4C[C@H]3O)cc(O)c(O)c12 [THEAFLAVIN] | – | > 500 nM | – | – | – | –
20 | CN(C)CCCCNCc1ccc(-c2cc3c(ccn3-c3ccccc3)c(-c3ccc(CNCCCCN(C)C)cc3)n2)cc1 | 21 °C | 87 nM | – | – | – | –
21 | CN1CCN(CCCCNCc2ccc(-c3cc(-c4ccc(CNCCCCN5CCN(C)CC5)cc4)c4ccn(-c5ccccc5)c4c3)cc2)CC1 | 20.4 °C | 74 nM | – | – | – | –
22 | CN(C)CCCCCNCc1ccc(-c2nc(-c3ccc(CNCCCCCN(C)C)cc3)c3ncn(-c4ccccc4)c3n2)cc1 | 34 °C | 103 nM | – | – | – | –
23 | CN(C)CCCCCNCc1ccc(-c2cc(-c3ccc(CNCCCCCN(C)C)cc3)c3ccn(-c4ccccc4)c3c2)cc1 | 30.9 °C | 90 nM | 3010 nM | – | 2320 nM | –
24 | CN(C)CCCNCc1ccc(-c2nc(-c3ccc(CNCCCN(C)C)cc3)c3ccn(-c4ccc(CNCCCN(C)C)cc4)c3n2)cc1 | 34.9 °C | 50 nM | – | – | ≥ 7200 nM | –
